Experimental data taken from US20120046273A1, “COMPOUNDS AND COMPOSITIONS FOR COGNITION-ENHANCEMENT, METHODS OF MAKING, AND METHODS OF TREATING” (MITHRIDION, INC., priority 2009, published 2012).

Experiments:
[1] = test system: hippocampal inositol phosphate signaling pathway; assay: In vivo tissue inositol phosphate signaling pathway activation, hippocampus; design: species or system rat; details: normal rats, dose-dependent in the dose range 0.03 mg/kg to at least 3 mg/kg
Experimental: Experimental compounds or drug substances were administered using standard techniques to Long Evans Hooded rats weighing 225 to 350 grams, and which had been pretreated with a subcutaneous injection of lithium chloride at a suitable dose between 3 and 10 mmoles per kg. At suitable times the animals were briefly anesthetized using 5% isoflurane and euthanized by decapitation. The brains and submaxillary salivary glands were rapidly dissected out, and the hippocampuses were dissected from the brains. The dissected tissues were homogenized in a suitable volume of ice-cold phosphate-buffered saline containing 10 mM lithium chloride, pH7.4, using a tissue homogenizer, and used immediately or frozen in aliquots at −80degC. for future use. The concentration of inositol-1-phosphate was determined in the homogenates using the IPOne TR-FRET assay (CisBio cat no 621PAPEB), following the manufacturer's instruction

[2] = molecular target: T1, human muscarinic M1 receptors (Homo sapiens, UniProt P11229); assay: Inositol phosphate production in huM1/A9L cells (IPOne TR-FRET); format: cell-based
T1 construct: expressed in transfected cells; host or cells: A9L cells (gift from Professor W Messer)
T1 sequence (P11229 1-460): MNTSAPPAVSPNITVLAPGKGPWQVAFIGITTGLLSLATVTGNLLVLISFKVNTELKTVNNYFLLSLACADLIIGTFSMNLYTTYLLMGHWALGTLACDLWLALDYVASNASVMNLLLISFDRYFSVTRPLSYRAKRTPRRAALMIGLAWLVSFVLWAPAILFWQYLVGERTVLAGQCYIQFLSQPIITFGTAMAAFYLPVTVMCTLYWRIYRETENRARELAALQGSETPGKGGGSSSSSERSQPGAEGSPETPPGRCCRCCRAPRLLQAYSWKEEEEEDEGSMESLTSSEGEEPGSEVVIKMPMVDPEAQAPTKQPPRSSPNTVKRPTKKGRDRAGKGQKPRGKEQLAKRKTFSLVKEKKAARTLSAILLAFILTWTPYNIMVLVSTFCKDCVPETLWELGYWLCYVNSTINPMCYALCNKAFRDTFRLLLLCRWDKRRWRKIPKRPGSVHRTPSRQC
Experimental: (§1) Muscarinic M1 and M3 agonist activity was evaluated by measuring the stimulation of inositol phosphate (IP) production in the presence of lithium chloride from A9L cells transfected with expression plasmids containing human muscarinic M1 and M3 receptors, respectively. The cell lines were a gift from Professor W Messer, and the methods were as described in Tejada F R et al. J. Med. Chem. 2006; 49: 7518-31 except that the assay was scaled down to run in 384 well plates, and IP was measured in the cell lysates using the non-isotopic IPOne TR-FRET assay (CIS-BIO, Inc).
(§2) Cells were grown to 90% confluence in 384 well hi-base plates (Greiner Bio-One), compounds were added at suitable concentrations in growth medium containing 10 mM LiCL, buffered with an extra 10 mM HEPES (pH7.4), and incubated for 60 minutes at 37° C. Cells were lysed and assayed for IP following the manufacturer's instructions.
(§3) The value for a full agonist is 100%, while partial agonists give values below 100%.

[3] = test system: pooled male human liver microsomes; assay: Metabolism by human liver microsomes; format: in vitro ADME; details: 6 hours incubation
Experimental: Compounds were incubated with pooled male human liver microsomes (BD Biosciences, #452172) and an NADP-regenerating system in a phosphate buffer (pH 7.4) for a total of 6 hours. Aliquots were removed every 2 hours, and 1% formic acid was added to halt the reaction. Samples were centrifuged, filtered through 0.2 micron spinfilter and the amount of each compound in the supernatants was quantitated using LC/MS/MS.

[4] = molecular target: T2, human muscarinic M3 receptors (Homo sapiens, UniProt P20309); assay: Inositol phosphate production in huM3/A9L cells (IPOne TR-FRET); format: cell-based
T2 construct: expressed in transfected cells; host or cells: A9L cells (gift from Professor W Messer)
Experimental: as §1, §2, §3

[5] = percentage of maximal stimulation by carbachol

T2 sequence (P20309 whole entry): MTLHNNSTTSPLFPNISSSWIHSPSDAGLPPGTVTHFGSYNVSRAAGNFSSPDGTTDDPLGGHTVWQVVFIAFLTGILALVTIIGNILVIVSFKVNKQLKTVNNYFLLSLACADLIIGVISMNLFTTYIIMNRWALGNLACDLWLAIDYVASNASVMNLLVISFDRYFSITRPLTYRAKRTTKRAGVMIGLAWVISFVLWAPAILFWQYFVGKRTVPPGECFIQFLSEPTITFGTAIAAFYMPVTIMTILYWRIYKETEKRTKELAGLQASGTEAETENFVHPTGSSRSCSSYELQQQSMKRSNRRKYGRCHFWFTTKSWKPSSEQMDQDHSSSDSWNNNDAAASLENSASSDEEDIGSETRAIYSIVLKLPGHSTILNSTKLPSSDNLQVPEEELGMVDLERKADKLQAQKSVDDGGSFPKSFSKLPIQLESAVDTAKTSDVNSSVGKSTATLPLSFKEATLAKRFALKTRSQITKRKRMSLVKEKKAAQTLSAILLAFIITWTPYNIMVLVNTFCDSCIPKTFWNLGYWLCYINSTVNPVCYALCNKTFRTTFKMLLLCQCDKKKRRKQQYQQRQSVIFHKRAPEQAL

Question: Which results are given for `Cc1noc(C2CCCNC2)n1` (racemic) [Compound 82, 3-Methyl-5-(piperidin-3-yl)-1,2,4-oxadiazole]?
Answer: hippocampal IP response [1]: causes an increase in the hippocampal IP response; huM1/A9L Smax [2, 5]: 108%; huM1/A9L ED50 relative to CCh ([2]; potency relative to carbachol): + (potency 2-10x CCh); extent of metabolism in human liver microsomes [3]: metabolized significantly less in human liver microsomes than in rat liver microsomes; huM3/A9L Smax [4, 5]: 54%; huM3/A9L ED50 relative to CCh ([4]; potency relative to carbachol): +/− (potency 0.5-2x CCh)
